Source: ChEMBL document CHEMBL1150816, “Bioactive constituents of the roots of Licania intrapetiolaris” (J Nat Prod, 2001)
≈ marks a conversion by molar mass, not a printed value. Calls of active or inactive are those of the source. No cut-off for these calls is given here.

Experiments:
Aspergillus niger = assay: Antifungal activity against Aspergillus niger after 24 hrs; type: functional
KB = assay: Cytotoxicity against human KB cells after 72 hrs by spectrophotometric method; type: functional, cell-based

Row | SMILES | inhibition zone (IZ) (Aspergillus niger) | EC50 (KB) [µg/mL]
1 | C=CC(=C)CC[C@]1(C)[C@H](C)C[C@H](O)[C@@]23C(=C[C@@H](OC(=O)c4ccc(O)cc4)C[C@@H]12)[C@@H](OC(C)=O)O[C@H]3OC(C)=O [INTRAPETACIN B] | 21 mm | 0.8 (≈ 1.44 µM)
2 | CC(=O)OC(C)(C)/C=C/C(=O)[C@](C)(O)[C@H]1[C@H](O)C[C@@]2(C)[C@@H]3CC=C4[C@H](C[C@H](O)C(=O)C4(C)C)[C@]3(C)C(=O)C[C@]12C [CUCURBITACIN B] | – | 0.008 (≈ 0.0143 µM)
3 | C=CC(=C)CC[C@]1(C)[C@H](C)C[C@H](O)[C@@]23C(=C[C@@H](OC(=O)c4ccc(O)cc4)C[C@@H]12)[C@@H](OC)O[C@H]3OC(C)=O [INTRAPETACIN A] | inactive | 2 (≈ 3.8 µM)
4 | C[C@@H]1[C@H](O)[C@@H](C)/C=C/C=C/C=C/C=C/C=C/C=C/C=C/[C@H](O[C@@H]2O[C@H](C)[C@@H](O)[C@H](N)[C@@H]2O)C[C@@H]2O[C@](O)(C[C@@H](O)C[C@@H](O)[C@H](O)CC[C@@H](O)C[C@@H](O)CC(=O)O[C@H]1C)C[C@H](O)[C@H]2C(=O)O [AMPHOTERICIN B] | 18 mm | –
